How the values were obtained:
JUN kinase = test: Western analysis of cytosolic and particulate fractions of erythropoietin-treated hearts; design: species or system rabbit
Method: (§1) Western analysis. Hearts from infant rabbits were isolated and aerobically perfused with bicarbonate buffer for 30 minutes at constant pressure, then perfused with erythropoietin for 5 or 15 minutes. The free wall of the left ventricle was excised and immediately freeze-clamped between stainless steel tongs pre-cooled with liquid nitrogen. Frozen myocardial tissue samples were powdered in a pre-cooled stainless steel mortar and pestle.
(§2) The powdered tissue was then processed to obtain cytosolic and particulate fractions for Western analysis, as described in Raflee et al., Circulation 106:239-45 (2002). Powdered tissue was homogenized in sample buffer (50 mM Tris pH 7.5, 5 mM EDTA, 10 mM EGTA, 10 mM benzamidine, 10 μg/ml pepstatin A, 50 μg/ml PMSE, 10 μg/ml aprotinin, 10 μg/ml leupeptin, and 0.3% β-mercaptoenthanol) on ice for 50 strokes. Nuclei and cellular debris was removed by centrifugation (1000 g at. 4° C. for 15 min). The supernatant was transferred to a new cold 1.5 mL microcentrifuge tube. The cytosolic and particulate portions of total cellular proteins were separated by a 30-minute centrifugation at 45000 g. Protein concentrations were determined by the method of Bradford. Equal amounts of protein were analyzed by SDS-PAGE and Western blotting by using either isoform-specific antibodies for phospho-PKC detection or specific antibodies against phosphorylated and non-phosphorylated p38 MAPK, JNK, and p42/44 MAPK. The blots were developed by ECL. Densitometry was performed on each sample and analyzed with the use of NIH image software. Rafiee et al., Circulation 106:239-45 (2002).
(§3) Cytosolic and particulate fractions from erythropoietin-treated and untreated hearts were prepared. Protein content for PKCε, p38 MAP kinase, p42/44 MAP kinase and JUN kinase was determined by SDS-PAGE and Western blot analysis using monoclonal antibodies specific for PKCε, phosphorylated p38 MAP kinase (Thr180/Tyr182), p42/44 MAP kinase (Thr202/Tyr204), and JUN kinase (Thr183/Tyr185). Non-phosphorylated antibodies were used to ensure equal loading of proteins.

p42/44 MAP kinase = test: as above; design: species or system rabbit
Method: as §1, §2, §3

p38 MAP kinase = test: as above; design: species or system rabbit
Method: as §1, §2, §3

[1] = system: hearts from chronically hypoxic infant rabbits; design: species or system New Zealand White rabbit
Text: Animals. Rabbits used in the study received humane care in compliance with the “Guide for the Care and Use of Laboratory Animals” formulated by the National Research Council, 1996. Infant New Zealand White rabbits were maintained for 10 days in a normoxic (SaO2>95%) or hypoxic (SaO2<85%) environment as described in Baker et al., Circulation 99:1249-54 (1999).
Isolated heart perfusion. Isolated rabbit hearts were perfused with bicarbonate buffer at constant pressure in a retrograde manner and instrumented as described in Baker et al., Circulation 99:1249-54 (1999). Protein kinase inhibitors, potassium channel blockers or nitric oxide synthase inhibitors were added to this perfusate as needed. A 3-way tap, located immediately above the site of cannulation, allowed the entire perfusate to be diverted away from the heart to produce global, no-flow ischemia. Reperfusion was achieved by repositioning of the tap to allow perfusate to be delivered to the heart. Left and right ventricular function was monitored continuously throughout each experiment as described in Baker et al., Circulation 99:1249-54 (1999). End-diastolic pressure was initially set to 3 mmHg for 2 minutes. The balloons were then progressively inflated with a microsyringe to set end-diastolic pressures to 8 mmHg for the left ventricle and 4 mmHg for the right ventricle, with developed pressure and heart rate recorded during steady-state conditions. Coronary flow rate was measured throughout the experiment by timed collections of the coronary effluent from the right side of the heart into a graduated cylinder. Coronary flow rate was expressed as milliliters per minute per gram wet weight.
Resistance to myocardial ischemia. Hearts from infant rabbits were perfused with bicarbonate buffer, and biventricular function was monitored continuously throughout each experiment as described in Rafiee et al., Circulation 106:239-45 (2002). For concentration response studies, hearts were then perfused with erythropoietin (0.5-10.0 U/ml) for 15 minutes prior to 30 minutes ischemia and 35 minutes reperfusion. For mechanism studies with protein kinase inhibitors, potassium channel blockers or nitric oxide synthase inhibitors, hearts were perfused with drugs for 15 minutes alone followed by 15 minutes in combination with erythropoietin prior to ischemia. Hearts perfused with protein kinase inhibitors or potassium channel blockers alone in the absence of erythropoietin for 30 minutes prior to ischemia served as untreated controls for these studies. Recovery of post-ischemic left and right ventricular developed pressure was expressed as a percentage of its pre-drug, pre-ischemic value.
Hearts from 10 day old chronically hypoxic rabbits were treated with erythropoietin at a concentration of 1.0 U/ml.

[2] = erythropoietin 1.0 U/ml for 5 minutes
[3] = erythropoietin 1.0 U/ml for 15 minutes
[4] = chronically hypoxic hearts, EPO 1.0 U/ml for 15 min
[5] = chronically hypoxic hearts, EPO 1.0 U/ml, after 30 min ischemia

Q: With “erythropoietin: Recombinant human erythropoietin, a glycoprotein hormone, obtained from Cell Science, Inc.” as the substance, how does the “treatment time at which phosphorylation of JUN kinase was maximized” value (JUN kinase; erythropoietin 1.0 U/ml) read?
A: 5 min

Q: What about the “phosphorylation of JUN kinase” value (JUN kinase; [2]) of the same substance?
A: phosphorylation of JUN kinase in the cytosolic fraction but not in the particulate fraction

Q: What about the “phosphorylation of JUN kinase in the cytosolic fraction” value (JUN kinase; [3]) of the same substance?
A: declined

Q: And the “treatment time at which phosphorylation of p42/44 MAP kinase was maximal” value (p42/44 MAP kinase; erythropoietin 1.0 U/ml)?
A: 15 min

Q: What about the “phosphorylation of p42/44 MAP kinase” value (p42/44 MAP kinase; [2]) of the same substance?
A: remarkable phosphorylation of p42/44 MAP kinase in the cytosolic fraction with minor phosphorylation in the particulate fraction

Q: And the “phosphorylation of p42/44 MAP kinase” value (p42/44 MAP kinase; [3])?
A: enhanced phosphorylation of p42/44 MAP kinase in the cytosolic fraction and in the particulate fraction

Q: What about the “treatment time at which phosphorylation of p38 MAP kinase was maximized” value (p38 MAP kinase; erythropoietin 1.0 U/ml) of the same substance?
A: 5 min

Q: And the “phosphorylation of p38 MAP kinase” value (p38 MAP kinase; [2])?
A: phosphorylation of p38 MAP kinase in the cytosolic fraction but not in the particulate fraction

Q: What about the “extent of phosphorylation of p38 MAP kinase” value (p38 MAP kinase; [3]) of the same substance?
A: declined

Q: And the “adverse effect on ischemic myocardium” value [1]?
A: did not appear to exert any adverse effect

Q: And the “POST DRUG Coronary flow rate” value [1, 4]?
A: 5 ± 1 mL/min/g

Q: What about the “POST DRUG Heart rate” value [1, 4] of the same substance?
A: 181 ± 16 beats/min

Q: And the “POST DRUG Left ventricle developed pressure” value [1, 4]?
A: 117 ± 15 mmHg

Q: And the “POST DRUG Right ventricle developed pressure” value [1, 4]?
A: 46 ± 8 mmHg

Q: What about the “REPERFUSION (35 min) Coronary flow rate” value [1, 5] of the same substance?
A: 6 ± 2 mL/min/g

Q: What about the “REPERFUSION (35 min) Heart rate” value [1, 5] of the same substance?
A: 204 ± 25 beats/min

Q: And the “REPERFUSION (35 min) Left ventricle developed pressure” value [1, 5]?
A: 77 ± 7 mmHg

Q: And the “REPERFUSION (35 min) Right ventricle developed pressure” value [1, 5]?
A: 42 ± 6 mmHg

From US20040198663A1, “Method of treating cardiac ischemia by using erythropoietin” (priority 2003, published 2004)
